The values that follow are results of earlier work, collected in article PMC8583936, “Machine Learning Assisted Approach for Finding Novel High Activity Agonists of Human Ectopic Olfactory Receptors” (International Journal of Molecular Sciences, 2021).

Series [1] concerns the target T1, OR1A1 (Homo sapiens, UniProt Q9P1Q5).
T1 sequence (Q9P1Q5 1-309): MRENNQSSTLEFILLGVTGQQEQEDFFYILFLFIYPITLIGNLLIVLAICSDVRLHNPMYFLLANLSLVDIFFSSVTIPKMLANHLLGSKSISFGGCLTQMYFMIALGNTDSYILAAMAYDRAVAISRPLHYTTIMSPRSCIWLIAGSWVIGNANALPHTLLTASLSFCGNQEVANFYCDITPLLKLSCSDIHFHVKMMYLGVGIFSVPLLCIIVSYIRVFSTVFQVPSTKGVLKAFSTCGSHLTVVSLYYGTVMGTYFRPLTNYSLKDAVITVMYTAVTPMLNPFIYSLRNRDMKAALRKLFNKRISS
The note with it: cited from earlier work.

The target in series [2] is T2, OR2W1 (Homo sapiens, UniProt Q9Y3N9).
T2 sequence (Q9Y3N9 1-320): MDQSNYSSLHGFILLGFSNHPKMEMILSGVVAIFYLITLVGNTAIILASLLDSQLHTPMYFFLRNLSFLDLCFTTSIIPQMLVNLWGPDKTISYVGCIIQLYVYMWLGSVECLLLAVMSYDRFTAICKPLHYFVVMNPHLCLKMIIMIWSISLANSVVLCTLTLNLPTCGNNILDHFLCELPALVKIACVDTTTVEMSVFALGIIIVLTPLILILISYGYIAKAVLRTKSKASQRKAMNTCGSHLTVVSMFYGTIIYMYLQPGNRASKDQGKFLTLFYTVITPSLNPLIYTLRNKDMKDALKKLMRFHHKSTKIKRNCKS
Conditions: cited from earlier work.

[3] abbreviates: Table S1, ref Supplement references [1]-[9] as printed after each odorant name.
Setting [4] is: Table S2, ref Supplement references [2]-[12] as printed after each odorant name.

Like-named read-outs stand apart in the source and are kept apart here.

As to `CC(C=O)Cc1ccc2c(c1)OCO2` (stereo not shown) [Helional], in series [1], the “Class (agonist / non-agonist / conflicting info.) for OR1A1” value is “Agonist”. In addition, the “Class (agonist / non-agonist / antagonist / conflicting info.) for OR2W1” value in series [2] is “Agonist”.
On to `CCCCCCC=O` [Heptanal], for which the “Class (agonist / non-agonist / conflicting info.) for OR1A1” value in series [1] (setting [3]) is given as “Conflicting info”. For the same molecule, the “Class (agonist / non-agonist / antagonist / conflicting info.) for OR2W1” value in series [2] (setting [4]) was “Agonist”.
As for `CCCCCCC(=O)O` [Heptanoic acid], the “Class (agonist / non-agonist / conflicting info.) for OR1A1” value in series [1] (setting [3]) is “Non-agonist”. For the same molecule, the “Class (agonist / non-agonist / antagonist / conflicting info.) for OR2W1” value in series [2] (setting [4]) is on record as “Non-agonist”.
On to `CCCCCCCO` [Heptanol], for which, in series [1] (setting [3]), the “Class (agonist / non-agonist / conflicting info.) for OR1A1” value was “Conflicting info”. For the same molecule, the “Class (agonist / non-agonist / antagonist / conflicting info.) for OR2W1” value in series [2] (setting [4]) was “Agonist”.
For the molecule `CCCCCCCOC(=O)C(C)C` [Heptyl isobutyrate], the “Class (agonist / non-agonist / conflicting info.) for OR1A1” value in series [1] is recorded as “Non-agonist”. Moreover, the “Class (agonist / non-agonist / antagonist / conflicting info.) for OR2W1” value in series [2] is listed as “Non-agonist”.
Consider `CCCCCC=O` [Hexanal], for which the “Class (agonist / non-agonist / conflicting info.) for OR1A1” value in series [1] (setting [3]) was “Non-agonist”. Also, the “Class (agonist / non-agonist / antagonist / conflicting info.) for OR2W1” value in series [2] (setting [4]) is on record as “Conflicting info”.
For the molecule `CCCCCC(=O)O` [Hexanoic acid], the “Class (agonist / non-agonist / conflicting info.) for OR1A1” value in series [1] is listed as “Non-agonist”. The “Class (agonist / non-agonist / antagonist / conflicting info.) for OR2W1” value in series [2] is “Non-agonist”.
In the case of `CCCCCCO` [Hexanol], the “Class (agonist / non-agonist / conflicting info.) for OR1A1” value in series [1] (setting [3]) is reported as “Non-agonist”. Moreover, the “Class (agonist / non-agonist / antagonist / conflicting info.) for OR2W1” value in series [2] (setting [4]) was “Conflicting info”.
For `CCCCCCOC(C)=O` [Hexyl acetate], the “Class (agonist / non-agonist / conflicting info.) for OR1A1” value in series [1] (setting [3]) was “Non-agonist”. Besides, the “Class (agonist / non-agonist / antagonist / conflicting info.) for OR2W1” value in series [2] (setting [4]) is listed as “Agonist”.
On to `CCC1OC(C)=C(O)C1=O` (stereo not shown) [Homofuraneol], for which, in series [1] (setting [3]), the “Class (agonist / non-agonist / conflicting info.) for OR1A1” value is reported as “Non-agonist”. The “Class (agonist / non-agonist / antagonist / conflicting info.) for OR2W1” value in series [2] (setting [4]) is reported as “Non-agonist”.
`CC(CC=O)CCCC(C)(C)O` (stereo not shown) [Hydroxy-citronellal]: the “Class (agonist / non-agonist / conflicting info.) for OR1A1” value in series [1] (setting [3]) is on record as “Conflicting info”. Moreover, in series [2] (setting [4]), the “Class (agonist / non-agonist / antagonist / conflicting info.) for OR2W1” value is given as “Non-agonist”.
In the case of `CC(=O)OCCC(C)C` [Isoamyl acetate], the “Class (agonist / non-agonist / conflicting info.) for OR1A1” value in series [1] (setting [3]) is on record as “Non-agonist”. In series [2] (setting [4]), the “Class (agonist / non-agonist / antagonist / conflicting info.) for OR2W1” value is on record as “Agonist”.
As for `CC(C)CO` [Isobutyl alcohol], the “Class (agonist / non-agonist / conflicting info.) for OR1A1” value in series [1] (setting [3]) is given as “Non-agonist”. Also, the “Class (agonist / non-agonist / antagonist / conflicting info.) for OR2W1” value in series [2] (setting [4]) is reported as “Non-agonist”.
Regarding `CC(C)CN` [Isobutyl amine], in series [1] (setting [3]), the “Class (agonist / non-agonist / conflicting info.) for OR1A1” value is on record as “Conflicting info”. Moreover, in series [2] (setting [4]), the “Class (agonist / non-agonist / antagonist / conflicting info.) for OR2W1” value is on record as “Antagonist”.
In the case of `CC(C)C=O` [Isobutylraldehyde], the “Class (agonist / non-agonist / conflicting info.) for OR1A1” value in series [1] (setting [3]) was “Non-agonist”. Further, the “Class (agonist / non-agonist / antagonist / conflicting info.) for OR2W1” value in series [2] (setting [4]) is listed as “Non-agonist”.
For `CC(C)C(=O)O` [Isobutyric acid], the “Class (agonist / non-agonist / conflicting info.) for OR1A1” value in series [1] (setting [3]) was “Non-agonist”. The “Class (agonist / non-agonist / antagonist / conflicting info.) for OR2W1” value in series [2] (setting [4]) is listed as “Non-agonist”.
As for `CC(C)CC=O` [Isovaleraldehyde], the “Class (agonist / non-agonist / conflicting info.) for OR1A1” value in series [1] (setting [3]) is “Non-agonist”. Also, the “Class (agonist / non-agonist / antagonist / conflicting info.) for OR2W1” value in series [2] (setting [4]) was “Non-agonist”.
As for `CC(C)CC(=O)O` [Isovaleric acid], the “Class (agonist / non-agonist / conflicting info.) for OR1A1” value in series [1] (setting [3]) is “Non-agonist”. Also, the “Class (agonist / non-agonist / antagonist / conflicting info.) for OR2W1” value in series [2] (setting [4]) is listed as “Antagonist”.
On to `C=CC(C)(O)CCC=C(C)C` (stereo not shown) [Linalool], for which the “Class (agonist / non-agonist / conflicting info.) for OR1A1” value in series [1] (setting [3]) was “Conflicting info”. Further, the “Class (agonist / non-agonist / antagonist / conflicting info.) for OR2W1” value in series [2] (setting [4]) is “Non-agonist”.
Take `CC(C)(O)CCCC1=CCC(C=O)CC1` (stereo not shown) [Lyral]: the “Class (agonist / non-agonist / conflicting info.) for OR1A1” value in series [1] (setting [3]) is “Conflicting info”. In addition, the “Class (agonist / non-agonist / antagonist / conflicting info.) for OR2W1” value in series [2] (setting [4]) was “Non-agonist”.
For `Cc1occc(=O)c1O` [Maltol], in series [1] (setting [3]), the “Class (agonist / non-agonist / conflicting info.) for OR1A1” value is “Non-agonist”. For the same molecule, the “Class (agonist / non-agonist / antagonist / conflicting info.) for OR2W1” value in series [2] (setting [4]) is reported as “Non-agonist”.
For `CC(C)[C@@H]1CC[C@@H](C)CC1=O` [Menthone], the “Class (agonist / non-agonist / conflicting info.) for OR1A1” value in series [1] (setting [3]) is “Conflicting info”. Besides, the “Class (agonist / non-agonist / antagonist / conflicting info.) for OR2W1” value in series [2] (setting [4]) was “Non-agonist”.
`CSCCC=O` [Methional]: the “Class (agonist / non-agonist / conflicting info.) for OR1A1” value in series [1] (setting [3]) is recorded as “Non-agonist”. Besides, in series [2] (setting [4]), the “Class (agonist / non-agonist / antagonist / conflicting info.) for OR2W1” value is “Non-agonist”.
For `CSCCCO` [Methionol], in series [1] (setting [3]), the “Class (agonist / non-agonist / conflicting info.) for OR1A1” value was “Non-agonist”. Also, the “Class (agonist / non-agonist / antagonist / conflicting info.) for OR2W1” value in series [2] (setting [4]) was “Non-agonist”.
On to `CSSc1ccoc1C` [Methyl 2-methyl-3-furyl disulfide], for which, in series [1] (setting [3]), the “Class (agonist / non-agonist / conflicting info.) for OR1A1” value was “Non-agonist”. In addition, the “Class (agonist / non-agonist / antagonist / conflicting info.) for OR2W1” value in series [2] (setting [4]) is given as “Non-agonist”.
`CCC(C)C(=O)OC` (stereo not shown) [Methyl 2-methylbutyrate]: the “Class (agonist / non-agonist / conflicting info.) for OR1A1” value in series [1] (setting [3]) was “Non-agonist”. Also, the “Class (agonist / non-agonist / antagonist / conflicting info.) for OR2W1” value in series [2] (setting [4]) was “Non-agonist”.
For the molecule `COC(=O)c1ccccc1N` [Methyl anthranilate], the “Class (agonist / non-agonist / conflicting info.) for OR1A1” value in series [1] is listed as “Non-agonist”. Moreover, in series [2], the “Class (agonist / non-agonist / antagonist / conflicting info.) for OR2W1” value is recorded as “Agonist”.
In the case of `COC(=O)c1ccccc1` [Methyl benzoate], the “Class (agonist / non-agonist / conflicting info.) for OR1A1” value in series [1] is recorded as “Non-agonist”. For the same molecule, the “Class (agonist / non-agonist / antagonist / conflicting info.) for OR2W1” value in series [2] is reported as “Non-agonist”.
As for `CCCC(=O)OC` [Methyl butyrate], the “Class (agonist / non-agonist / conflicting info.) for OR1A1” value in series [1] was “Non-agonist”. Also, in series [2], the “Class (agonist / non-agonist / antagonist / conflicting info.) for OR2W1” value is given as “Non-agonist”.
`COC(=O)C=Cc1ccccc1` [Methyl cinnamate]: the “Class (agonist / non-agonist / conflicting info.) for OR1A1” value in series [1] (setting [3]) is “Non-agonist”. Further, the “Class (agonist / non-agonist / antagonist / conflicting info.) for OR2W1” value in series [2] (setting [4]) is recorded as “Agonist”.
Regarding `CSSCc1ccco1` [Methyl furfuryl disulfide], the “Class (agonist / non-agonist / conflicting info.) for OR1A1” value in series [1] (setting [3]) was “Conflicting info”. Moreover, the “Class (agonist / non-agonist / antagonist / conflicting info.) for OR2W1” value in series [2] (setting [4]) is reported as “Non-agonist”.
On to `COC(=O)C(C)C` [Methyl isobutyrate], for which the “Class (agonist / non-agonist / conflicting info.) for OR1A1” value in series [1] (setting [3]) is listed as “Non-agonist”. Besides, the “Class (agonist / non-agonist / antagonist / conflicting info.) for OR2W1” value in series [2] (setting [4]) is “Non-agonist”.
In the case of `CCCSSSC` [Methyl propyl trisulfide], the “Class (agonist / non-agonist / conflicting info.) for OR1A1” value in series [1] (setting [3]) was “Non-agonist”. For the same molecule, in series [2] (setting [4]), the “Class (agonist / non-agonist / antagonist / conflicting info.) for OR2W1” value is recorded as “Non-agonist”.
Regarding `COC(=O)c1ccccc1O` [Methyl salicylate], the “Class (agonist / non-agonist / conflicting info.) for OR1A1” value in series [1] (setting [3]) is “Conflicting info”. For the same molecule, in series [2] (setting [4]), the “Class (agonist / non-agonist / antagonist / conflicting info.) for OR2W1” value is given as “Agonist”.
In the case of `C=CC(=C)CCC=C(C)C` [Myrcene], the “Class (agonist / non-agonist / conflicting info.) for OR1A1” value in series [1] (setting [3]) is “Non-agonist”. The “Class (agonist / non-agonist / antagonist / conflicting info.) for OR2W1” value in series [2] (setting [4]) was “Non-agonist”.
In the case of `CCCCCOC(C)=O` [N-amyl acetate], the “Class (agonist / non-agonist / conflicting info.) for OR1A1” value in series [1] (setting [3]) is “Non-agonist”. Further, the “Class (agonist / non-agonist / antagonist / conflicting info.) for OR2W1” value in series [2] (setting [4]) is given as “Agonist”.
On to `O=C(O)CCCCCCCC(=O)O` [Nonanedioic acid], for which, in series [1] (setting [3]), the “Class (agonist / non-agonist / conflicting info.) for OR1A1” value is listed as “Non-agonist”. Moreover, in series [2] (setting [4]), the “Class (agonist / non-agonist / antagonist / conflicting info.) for OR2W1” value is “Non-agonist”.
With `CCCCCCCCCS` [Nonanethiol], in series [1] (setting [3]), the “Class (agonist / non-agonist / conflicting info.) for OR1A1” value was “Agonist”. The “Class (agonist / non-agonist / antagonist / conflicting info.) for OR2W1” value in series [2] (setting [4]) is recorded as “Agonist”.
